Test results from US20100204295A1, “TREATMENT OF ALLERGIC DISEASE WITH IMMUNOMODULATOR COMPOUNDS” (SCICLONE PHARMACEUTICALS, INC., priority 2007, published 2010).

Key:
[1] = test system: spleen lymphocytes; conditions: cited from earlier work
[2] = in vivo; cited from earlier work
[3] = test system: thymocyte and lymphocyte proliferation; conditions: cited from earlier work
[4] = test system: interferon-γ; experiment: ConA-induced IFN-γ production by splenocytes after intra-abdominal SCV-07; assay type: in vivo, mice; conditions: 1 μg/kg, five daily intra-abdominal injections; ConA 5 μg/mL
Experimental: SCV-07 was administered to intact wild mice in the form of five daily intra-abdominal injections at dosages of 0.1 and 1.0 μg/kg of body weight. After this, isolation of spleen cells was carried out the cytokine synthesis was induced in the culture by stimulating the cells with concanavalin A at a dosage of 5 μg/mL. The levels of the synthesized cytokines were determined by quantitative immunoenzyme analysis. […] The changes on ConA-induced production of two other [sic] cytokines—IFN-γ and IL-4, as is apparent from FIG. 1, were reciprocal in nature.

[5] = test system: bronchial asthma; assay type: in vivo
From the text: Patient B-skii, reported with complaints of dyspnea attacks 6-7 times a day, cough with phlegm that was difficult to discharge, shortness of breath, and nasal obstruction. It is known from the history that, since 1985, they have suffered bronchial asthma, has been hospitalized several times by emergency medical services in the Allergological Department in conjunction with exacerbation of the disease. Since 1997, they have been taking systemic glucocorticoids (Prednisolone 2 tablets/day—maintenance dose). They are also receiving Beklazom LD 250 (up to 1000 μg/day), Flixotide 250 (to 1000 μg/day), prolonged broncholytics (Serevent 25 μg/unit 50 μg/s), Teotard 200 (2 k/day, 400 mg/day). The attacks are treated with salbutamol (Ventolin).
The patient was prescribed the treatment: • 1. Ventolin through a nebulizer during dyspnea attacks—for 2 days, then Astalin (DAI) during dyspnea no more than 3-4 times a day; • 2. Intravenous drip: • 1. Prednisolone 90 nu-60 nu-30 nu in 200.0 mL physiological saline; • 2. Euphylline 2.4%-10.0-5.0 mL. • 3. Heparin 5000 units. • 4. Benacort 200 (800 μg/day). • 5. Prednisolone 4 t/day (8:00, 12:00) • 6. Lazolvan through a nebulizer, then Ambrohexyl 1 t/3 times a day.
During attenuation of the acute condition (on the 8th day of hospitalization), SCV-07 was prescribed in an amount of 0.1 mg in 1.0 mL physiological saline once a day No. 5 daily [sic] intramuscular.
The patient took another examination under dynamic conditions (24 hours after the 5th intramuscular injection of SCV-07): Total blood analysis: erythrocytes—5.12·10^12/L, HB—159 g/L, leukocytes—9.7° 10^9/L, ESR—6 mm/h, b-, e—2%, rod nuclears—5%, segmented nuclears—67%, lymphocytes—20%, M—6%. Blood biochemistry: Sugar—5.7; Total bilirubin—8.9, ALT—0.12, AST—0.13, urea—5.12, creatinine—0.073 General sputum analysis—character—mucous, color gray, consistency viscous, flat epithelium 7-8, alveolar epithelium—none, leukocytes—1-2× in visual field. Hormonal status—cortisol—72.4 Evaluation of immune status

[6] = test system: infiltration of the lung tissue; experiment: Morphometric peribronchial and perivascular infiltration of lung tissue, ovalbumin asthma model; assay type: in vivo, mice of the Balb/C line; conditions: age group not given
From the text: Female, non-pathogenic mice of the Balb/C line (“Pushchtino” laboratory animal breeders) were kept under conditions of an SPF-vivarium at a constant temperature, 12-hour day/night cycle, and received sterile feed and water ad libitum. In two series of experiments, mice from 6-8 weeks and 18-20 weeks of age were used at the beginning of the experiment, respectively. The animals were immunized twice at 5-day intervals with an ovalbumin solution (Sigma) in an adjuvant based on ammonium sulfate at a dosage of 8 μg per mouse. SCV-07 was administered intra-abdominally in a volume of 200 μL at a dosage of 0.1 or 1.0 μg/kg in PBS once a day from 6 through 11 days after the first immunization. The control group received physiological saline on the same days. Each group comprised 6 to 10 animals. On the 12th, 16th and 20th days after the first immunization, the animals were then placed in a hermetic box, in which an aerosol of 1% ovalbumin solution (OvA) in PBS was generated with an ultrasonic nebulizer LD-207U (Little Doctor) for 1 minute with continuous mixing of air. The duration of exposure of the animals to the aerosol was 15 minutes. Analysis of the severity of experimental allergic asthma was carried out 24 hours after the last aerosol exposure. […] Sections of […] were prepared. The sections were stained with hematoxylin-eosin to evaluate the intensity of cell infiltration and Schiff-iodic acid to count the number of goblet cells. Quantitative evaluation of the peribronchial and perivascular infiltration was accomplished morphometrically with the Scion Image program package. Three bronchi and three vessels were analyzed on sections of the lungs from each animal. The area of the infiltration was calculated as the difference between the area of the tissue containing bronchi or vessels and the infiltration surrounding it, and the area of the vessel or bronchus itself. The indices of infiltration were calculated as the ratio of the area of the infiltration to the area of the vessel or bronchus.

[7] = 24 hours after the 5th injection
[8] = after 5 intramuscular injections of 0.1 mg

Compound: N[C@H](CCC(=O)N[C@@H](Cc1c[nH]c2ccccc12)C(=O)O)C(=O)O [SCV-07, γ-D-glutamyl-L-tryptophan]
- Con-A-induced interleukin-2 (IL-2) production by spleen lymphocytes [1]: increases
- IL-2 receptor expression by spleen lymphocytes [1]: increases
- Non-toxic dose as multiple of the employed doses [2]: ≥ 100,000 times
- Con-A-induced thymocyte and lymphocyte proliferation [3]: increases
- Change in ConA-induced IFN-γ production by the splenocytes [4]: almost five-fold increase
- Immune status: CD3+ [5, 7]: CD3^+- 52
- Immune status: CD4+ [5, 7]: CD4^+- 36
- Immune status: CD8+ [5, 7]: CD8^+- 15
- Immune status: CD16+ [5, 7]: CD16^+- 7
- Immune status: CD20+ [5, 7]: CD20^+-11
- Immune status: CD25+ [5, 7]: CD25^+-1.3
- Immune status: Ig A [5, 7]: Ig A - 1.11
- Immune status: Ig G [5, 7]: Ig G - 11.5
- Immune status: Ig M [5, 7]: Ig M - 0.9
- Immune status: NST [5, 7]: NST - 100/163
- Immune status: TSIK [5, 7]: TSIK - 77
- Immune status: κ (NST ratio) [5, 7]: κ - 1.6
- Immune status: Ig E ([5]; 24 hours after the 5th injection, 1130.6 on admission): Ig E - 672.1
- Clinical dynamics of the disease [5, 8]: elimination of dyspnea attacks, cough, rhinitis
- Patient well-being after the course [5, 8]: significant improvement of feeling well-being
- Shortness of breath (respiratory rate) ([5]; after course, 24 per minute on admission): 16 per minute
- Index of peribronchial infiltration, conventional units ([6]; 0.1 μg/kg): 0.39 ± 0.19 conventional units
- Index of perivascular infiltration, conventional units ([6]; 0.1 μg/kg): 1.67 ± 1.08 conventional units
- Index of peribronchial infiltration, conventional units ([6]; 1 μg/kg): 0.35 ± 0.14 conventional units
- Index of perivascular infiltration, conventional units ([6]; 1 μg/kg): 1.48 ± 1.02 conventional units
